{
  "source": "paper PMC11258615",
  "about": "(RSC Advances, 2024)",
  "molecular_target": "mushroom tyrosinase (Agaricus bisporus, UniProt C7FF04)",
  "sequence (C7FF04 1-392)": "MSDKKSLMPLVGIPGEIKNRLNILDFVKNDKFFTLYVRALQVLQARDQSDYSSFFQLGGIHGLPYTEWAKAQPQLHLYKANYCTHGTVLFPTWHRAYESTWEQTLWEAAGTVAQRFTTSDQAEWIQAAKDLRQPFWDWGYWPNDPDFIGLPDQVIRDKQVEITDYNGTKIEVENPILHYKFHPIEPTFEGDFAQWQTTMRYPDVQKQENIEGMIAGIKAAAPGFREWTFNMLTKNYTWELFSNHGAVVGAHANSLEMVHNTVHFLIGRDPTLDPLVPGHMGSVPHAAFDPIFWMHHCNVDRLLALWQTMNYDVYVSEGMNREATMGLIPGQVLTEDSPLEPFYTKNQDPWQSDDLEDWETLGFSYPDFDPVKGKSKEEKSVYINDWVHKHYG",
  "assay": "Kinetic analysis of tyrosinase inhibition",
  "conditions": "L-DOPA 0.5 to 3 mM",
  "note": "“Also recorded” adds a separate entry of the source.",
  "data": [
    {"compound": "Nc1ccc(-c2cc(-c3ccc(-c4cc(-c5ccc(N)cc5)nc(N)n4)cc3)nc(N)n2)cc1", "note": "[Compound 6P, 6,6′-(1,4-phenylene)bis[4-(4-aminophenyl)pyrimidin-2-amine]]", "values": [
      {"measurement": "Type of tyrosinase inhibition (Lineweaver-Burk plots)", "value": "mixed-type inhibitor; also recorded: mixed-type inhibition"}
    ]}
  ]
}
